Several values for one entry are separate records, joined by “and”; a condition that tells them apart may be missing. Equal values may be shown once. Inconclusive results and toxic doses are left out. Rule for the calls: active = survival T/C of 150% or more; inactive = T/C below 125% in these data.
System: CD2F1 mice, L1210 leukemia ip, survival T/C
Assay: NCI In Vivo Anticancer Drug Screen. Data for tumor model L1210 Leukemia (intraperitoneal) in CD2F1 (CDF1) mice
Conditions: endpoint: mean survival time, higher = longer survival
Outline: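 Read-out first: treated-group measurement over vehicle-control measurement, expressed as a ratio. Animals bore a transplanted tumor line and were dosed with compound or vehicle.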

[1] = dose: 50.0 mg/kg/injection, schedule: Q04DX002 (ip), vehicle: saline with Tween-80
[2] = dose: 100.0 mg/kg/injection, schedule: Q04DX002 (ip), vehicle: saline with Tween-80
[3] = dose: 200.0 mg/kg/injection, schedule: Q04DX002 (ip), vehicle: saline with Tween-80
[4] = dose: 25.0 mg/kg/injection, schedule: Q04DX003 (ip), vehicle: saline
[5] = dose: 50.0 mg/kg/injection, schedule: Q04DX003 (ip), vehicle: saline
[6] = dose: 100.0 mg/kg/injection, schedule: Q01DX009 (ip), vehicle: saline
[7] = dose: 100.0 mg/kg/injection, schedule: Q04DX003 (ip), vehicle: saline with Tween-80
[8] = dose: 200.0 mg/kg/injection, schedule: Q04DX003 (ip), vehicle: saline with Tween-80
[9] = dose: 400.0 mg/kg/injection, schedule: Q04DX003 (ip), vehicle: saline with Tween-80
[10] = dose: 100.0 mg/kg/injection, schedule: Q04DX003 (ip), vehicle: Klucel (hydroxypropylcellulose) (HPC)
[11] = dose: 200.0 mg/kg/injection, schedule: Q04DX003 (ip), vehicle: Klucel (hydroxypropylcellulose) (HPC)

Measured: T/C

CC1=C(N)C(=O)N(C)C1=O
inactive: dose: 25.0 mg/kg/injection, schedule: Q04DX002 (ip), vehicle: saline with Tween-80 98 % of control | [1] 95 % of control | [2] 98 % of control | [3] 98 % of control

CN1CCCN(C(=S)S)CC1
inactive: [4] 98 % of control | [5] 103 % of control | dose: 100.0 mg/kg/injection, schedule: Q04DX003 (ip), vehicle: saline 103 % of control

Cn1c(=O)c2[nH]cnc2n(C)c1=O (tested in a mixture with another compound)
inactive: dose: 50.0 mg/kg/injection, schedule: Q01DX009 (ip), vehicle: saline sonified 98 % of control | dose: 100.0 mg/kg/injection, schedule: Q01DX009 (ip), vehicle: saline sonified 98 % of control | dose: 200.0 mg/kg/injection, schedule: Q01DX009 (ip), vehicle: saline sonified 98 % of control

CCCCCCCCCCCCCCOc1ccc(OCCCCCCCCCCC)cc1
inactive: dose: 200.0 mg/kg/injection, schedule: Q01DX001 (ip), vehicle: saline with Tween-80 89 % of control | dose: 400.0 mg/kg/injection, schedule: Q01DX001 (ip), vehicle: saline with Tween-80 89 % of control

O=[N+]([O-])c1cccc(/C=N\[n+]2ccccc2)c1
inactive: [1] 97 % of control | [2] 100 % of control | [3] 100 % of control

N/C=N/O
inactive: dose: 66.0 mg/kg/injection, schedule: Q01DX009 (ip), vehicle: saline 112 % of control | [6] 120 % of control and 110 % of control | dose: 400.0 mg/kg/injection, schedule: Q01DX009 (ip), vehicle: saline 114 % of control

Cc1cc2nc3c(nc2cc1C)-c1ccccc1C3=O
inactive: [7] 94 % of control | [8] 93 % of control | [9] 94 % of control

CC1COC(Nc2cccc3c2CCCC3)=N1 (stereo not drawn)
inactive: dose: 12.5 mg/kg/injection, schedule: Q04DX003 (ip), vehicle: saline with Tween-80 97 % of control | dose: 25.0 mg/kg/injection, schedule: Q04DX003 (ip), vehicle: saline with Tween-80 97 % of control | dose: 50.0 mg/kg/injection, schedule: Q04DX003 (ip), vehicle: saline with Tween-80 97 % of control

c1ccc2c3c([nH]c2c1)CCCCC3
inactive: [7] 92 % of control | [8] 95 % of control | [9] 94 % of control

CCOC/C=C/C(C)(C)C
inactive: dose: 50.0 mg/kg/injection, schedule: Q01DX009 (ip), vehicle: saline with Tween-80 102 % of control | dose: 100.0 mg/kg/injection, schedule: Q01DX009 (ip), vehicle: saline with Tween-80 102 % of control | dose: 200.0 mg/kg/injection, schedule: Q01DX009 (ip), vehicle: saline with Tween-80 97 % of control

O=C(O)C1C2C=CC(O2)C1CO (stereo not drawn)
inactive: dose: 25.0 mg/kg/injection, schedule: Q04DX002 (ip), vehicle: saline 103 % of control | dose: 50.0 mg/kg/injection, schedule: Q04DX002 (ip), vehicle: saline 100 % of control | dose: 100.0 mg/kg/injection, schedule: Q04DX002 (ip), vehicle: saline 100 % of control

O=C(C[n+]1cc2ccccc2cc1Cl)c1ccccc1
inactive: [10] 97 % of control | [11] 88 % of control

[Pt+2].[S-]c1ccccc1.[S-]c1ccccc1.c1ccc([PH+](c2ccccc2)c2ccccc2)cc1.c1ccc([PH+](c2ccccc2)c2ccccc2)cc1
inactive: dose: 3.13 mg/kg/injection, schedule: Q04DX003 (sc), vehicle: distilled water + Tween-80 97 % of control | dose: 6.25 mg/kg/injection, schedule: Q04DX003 (sc), vehicle: distilled water + Tween-80 110 % of control | dose: 12.5 mg/kg/injection, schedule: Q04DX003 (sc), vehicle: distilled water + Tween-80 103 % of control | dose: 25.0 mg/kg/injection, schedule: Q04DX003 (sc), vehicle: distilled water + Tween-80 97 % of control | dose: 50.0 mg/kg/injection, schedule: Q04DX003 (sc), vehicle: distilled water + Tween-80 91 % of control | dose: 100.0 mg/kg/injection, schedule: Q04DX003 (sc), vehicle: distilled water + Tween-80 89 % of control

Fc1ccc2ccnnc2c1
inactive: dose: 100.0 mg/kg/injection, schedule: Q01DX001 (ip), vehicle: other 103 % of control | dose: 200.0 mg/kg/injection, schedule: Q01DX001 (ip), vehicle: other 95 % of control

C1CN(P2(N3CC3)=NP(N3CC3)(N3CC3)=NP(N3CC3)(N3CC3)=N2)CCO1 (stereo not drawn)
inactive: dose: 6.25 mg/kg/injection, schedule: Q01DX009 (ip), vehicle: saline 120 % of control and 123 % of control and 109 % of control | dose: 25.0 mg/kg/injection, schedule: Q01DX001 (ip), vehicle: saline 121 % of control | dose: 50.0 mg/kg/injection, schedule: Q01DX001 (ip), vehicle: saline 119 % of control | [6] 98 % of control

CCCCOC(=O)c1ccccc1Cl
inactive: dose: 50.0 mg/kg/injection, schedule: Q04DX003 (ip), vehicle: Klucel (hydroxypropylcellulose) (HPC) 94 % of control | [10] 100 % of control | [11] 102 % of control

C=C1C(=O)OC2/C=C(\CO)CC/C=C(\CO)CC(OC(=O)C(C)C)C12 (stereo not drawn)
inactive: dose: 3.75 mg/kg/injection, schedule: Q01DX009 (ip), vehicle: Klucel (hydroxypropylcellulose) (HPC) 100 % of control | dose: 7.5 mg/kg/injection, schedule: Q01DX009 (ip), vehicle: Klucel (hydroxypropylcellulose) (HPC) 88 % of control | dose: 15.0 mg/kg/injection, schedule: Q01DX009 (ip), vehicle: Klucel (hydroxypropylcellulose) (HPC) 97 % of control | dose: 30.0 mg/kg/injection, schedule: Q01DX009 (ip), vehicle: Klucel (hydroxypropylcellulose) (HPC) 105 % of control

C/C(=N/NC(=O)c1ccccc1)c1ccc(Cl)cc1Cl
inactive: dose: 50.0 mg/kg/injection, schedule: Q01DX009 (ip), vehicle: Klucel (hydroxypropylcellulose) (HPC) 89 % of control

CCCCCCCCCCCC(=O)NC1CC(O[C@H]2C[C@](O)(C(=O)CO)Cc3c(O)c4c(c(O)c32)C(=O)c2c(OC)cccc2C4=O)OC(C)C1O (stereo partly drawn)
inactive: dose: 1.5 mg/kg/injection, schedule: Q01DX009 (ip), vehicle: saline with Tween-80 108 % of control | dose: 1.5 mg/kg/injection, schedule: Q01DX009 (ip), vehicle: saline 104 % of control | dose: 3.0 mg/kg/injection, schedule: Q01DX009 (ip), vehicle: saline with Tween-80 98 % of control | dose: 3.0 mg/kg/injection, schedule: Q01DX009 (ip), vehicle: saline 113 % of control | dose: 6.0 mg/kg/injection, schedule: Q01DX009 (ip), vehicle: saline with Tween-80 105 % of control | dose: 6.0 mg/kg/injection, schedule: Q01DX009 (ip), vehicle: saline 113 % of control | dose: 6.25 mg/kg/injection, schedule: Q01DX009 (ip), vehicle: distilled water + Tween-80 105 % of control | dose: 12.0 mg/kg/injection, schedule: Q01DX009 (ip), vehicle: saline with Tween-80 107 % of control | dose: 12.5 mg/kg/injection, schedule: Q01DX009 (ip), vehicle: distilled water + Tween-80 105 % of control | dose: 24.0 mg/kg/injection, schedule: Q01DX009 (ip), vehicle: saline with Tween-80 112 % of control | dose: 24.0 mg/kg/injection, schedule: Q01DX009 (ip), vehicle: saline 116 % of control | dose: 25.0 mg/kg/injection, schedule: Q01DX009 (ip), vehicle: distilled water + Tween-80 112 % of control | dose: 48.0 mg/kg/injection, schedule: Q01DX009 (ip), vehicle: saline with Tween-80 97 % of control | dose: 50.0 mg/kg/injection, schedule: Q01DX009 (ip), vehicle: distilled water + Tween-80 116 % of control

CN(C)c1ccc(C(=O)CCN2CC=C(c3ccccc3)CC2)cc1
inactive: [2] 102 % of control

CN(C)C=Nc1ccc(Cl)c(Cl)c1
inactive: [4] 98 % of control | [5] 92 % of control

CN(C)c1ccc(N=Nc2nccs2)cc1
inactive: dose: 18.7 mg/kg/injection, schedule: Q04DX003 (ip), vehicle: saline with Tween-80 86 % of control | dose: 37.5 mg/kg/injection, schedule: Q04DX003 (ip), vehicle: saline with Tween-80 102 % of control | dose: 75.0 mg/kg/injection, schedule: Q04DX003 (ip), vehicle: saline with Tween-80 96 % of control

O=C(c1ccc2ccccc2c1O)N1CCCCC1
inactive: [7] 101 % of control | [8] 103 % of control | [9] 101 % of control
